The values below come from ChEMBL document CHEMBL1154989, “Towards the second generation of Boceprevir: Dithianes as an alternative P2 substituent for 2,2-dimethyl cycloproyl proline in HCV NS3 protease inhibitors” (Bioorg Med Chem Lett, 2010).

The structures appear in SMILES notation. The source made the active and inactive calls. No cut-off for these calls is given here.

A short description of data set [1]: Selectivity for HCV NS3 serine protease over human neutrophil elastase.
A short description of data set [2]: AUC in rat at 10 mg/kg, po. The class given is ADME, organism-based. Set-up: dose 10 mg/kg, route oral. The following applies: plasma.
Data set [3] in a line: Inhibition of HCV NS3/4A serine protease by continuous spectrophotometric assay. Set-up: species or system Hepacivirus hominis.
Data set [4] concerns Hepatitis C virus. The data set is described as follows: Antiviral activity against HCV replicon expressing NS3-5 infected in HuH7 cells assessed as inhibition of viral replication after 3 days by ELISA. The class given is functional, organism-based, Hepacivirus hominis, Huh-7. On the technique in general: In antiviral work, replicon cells carry a viral genome segment that copies itself.

As usually defined, the AUC is concentration integrated over time. The Ki is a dissociation constant, usually derived from enzyme kinetics or from competition with a known ligand. Regarding `C=CCNC(=O)C(=O)C(CCC)NC(=O)[C@@H]1CC2(CN1C(=O)[C@@H](NC(=O)NC1(CS(=O)(=O)C(C)(C)C)CCCCC1)C1(C)CCCCC1)SCCS2` (stereo not given in full), the Ratio in data set [1] worked out at 10. This compound also registered an exposure (AUC) in data set [2] of 1.34 µM·h. This compound also returned a Ki in data set [3] of 19 nM.

For the compound `C=CCNC(=O)C(=O)C(CC1CC1)NC(=O)[C@@H]1CC2(CN1C(=O)[C@@H](NC(=O)NC1(CS(=O)(=O)C(C)(C)C)CCCCC1)C(C)(C)C)SCCS2` (stereo not given in full), the Ratio in data set [1] was 40. Besides, the exposure (AUC) in data set [2] worked out at 0.77 µM·h. In data set [3], this compound yielded a Ki of 33 nM.

As for `C=CCNC(=O)C(=O)C(CC1CC1)NC(=O)[C@@H]1CC2(CN1C(=O)[C@@H](NC(=O)NC1(CS(=O)(=O)C(C)(C)C)CCCCC1)C(C)(C)C)SCCCS2` (stereo not given in full), the Ratio in data set [1] was found to be 130. This compound also gave an area under the curve (AUC) in data set [2] of 1.69 µM·h. For the same compound, in data set [3], the Ki was determined as 18 nM.

Consider `C=CCNC(=O)C(=O)C(CCCC)NC(=O)[C@@H]1CC2(CN1C(=O)[C@@H](NC(=O)N[C@@H](CN1C(=O)CC(C)(C)CC1=O)C(C)(C)C)C(C)(C)C)SCCS2` (stereo not given in full), for which the Ratio in data set [1] stood at 1500. Moreover, the area under the curve (AUC) in data set [2] amounted to 0.2 µM·h. In addition, the inhibition constant Ki in data set [3] is 13 nM.

Regarding `C=CCNC(=O)C(=O)C(CCC)NC(=O)[C@@H]1CC2(CN1C(=O)[C@@H](NC(=O)N[C@@H](CN1C(=O)CC(C)(C)CC1=O)C(C)(C)C)C(C)(C)C)SCCS2` (stereo not given in full), in data set [1], the Ratio stood at 630. Moreover, the area under the curve (AUC) in data set [2] stood at 0.06 µM·h. Affinity in data set [3] was put at a Ki of 5 nM.

On to `CC(C)(C)NC(=O)N[C@H](C(=O)N1CC2(C[C@H]1C(=O)NC(CC1CC1)C(=O)C(N)=O)SCCS2)C(C)(C)C` (stereo not given in full), for which the affinity in data set [3] corresponds to a Ki of 300 nM.

With `C=CCNC(=O)C(=O)C(CC1CC1)NC(=O)[C@@H]1CC2(CN1C(=O)[C@@H](NC(=O)N[C@@H](CN1C(=O)CC(C)(C)CC1=O)C(C)(C)C)C1(C)CCCCC1)SCCS2` (stereo not given in full), in data set [1], the Ratio was determined as 200. The exposure (AUC) in data set [2] is 0.2 µM·h. This compound also gave a Ki in data set [3] of 18 nM.

Consider `C=CCNC(=O)C(=O)C(CC1CC1)NC(=O)[C@@H]1CC2(CN1C(=O)[C@@H](NC(=O)N[C@@H](C(=O)OC1CC1)C(C)C)C1CCCCC1)SCCS2` (stereo not given in full), for which the Ratio in data set [1] stood at 15. In data set [3], this compound registered a Ki of 72 nM.

As for `C=CCNC(=O)C(=O)C(CCC1CC1)NC(=O)[C@@H]1CC2(CN1C(=O)[C@@H](NC(=O)N[C@@H](CN1C(=O)CC(C)(C)CC1=O)C(C)(C)C)C(C)(C)C)SCCS2` (stereo not given in full), in data set [1], the Ratio amounted to 1700. This compound also came in with a Ki in data set [3] of 13 nM.

Turning to `C=CCNC(=O)C(=O)C(CCC)NC(=O)[C@@H]1CC2(CN1C(=O)[C@@H](NC(=O)N[C@@H](CN1C(=O)CC(C)(C)CC1=O)C(C)(C)C)C1(C)CCCCC1)SCCS2` (stereo not given in full), in data set [1], the Ratio was found to be 240. In addition, the area under the curve (AUC) in data set [2] amounted to 0.04 µM·h. The affinity in data set [3], expressed as Ki, was 6 nM.

Turning to `C=CCNC(=O)C(=O)C(CCC)NC(=O)[C@@H]1CC2(CN1C(=O)[C@@H](NC(=O)NC1(CS(=O)(=O)C(C)(C)C)CCCCC1)C(C)(C)C)SCCCS2` (stereo not given in full), in data set [1], the Ratio was 128. The compound also showed an AUC in data set [2] of 2.56 µM·h. In data set [3], affinity was put at a Ki of 7 nM.

For the compound `C=CCNC(=O)C(=O)C(CC1CC1)NC(=O)[C@@H]1CC2(CN1C(=O)[C@@H](NC(=O)N[C@@H](C(=O)OC1CC1)C(C)C)C(C)(C)C)SCCS2` (stereo not given in full), the Ratio in data set [1] came out at 40. In data set [3], the Ki was determined as 84 nM.

Broadly, the EC90 is the concentration at which the effect reaches the 90% level. As to `C=CCNC(=O)C(=O)C(CC1CC1)NC(=O)[C@@H]1CC2(CN1C(=O)[C@@H](NC(=O)NC(C)(C)C)C(C)(C)C)SCCS2` (stereo not given in full), in data set [4] (huh-7), the 90% effect concentration (EC90) entry was “Not Active”. The Ratio entry in data set [1] was “inactive”. In data set [3], this compound gave an inhibition constant (Ki) of 700 nM.

In data set [3], `CC(C)(C)NC(=O)N[C@H](C(=O)N1CC2(C[C@H]1C(=O)NC(CC1CCC1)C(=O)C(N)=O)SCCS2)C1CCCCC1` (stereo not given in full) yielded an inhibitory constant (Ki) of 400 nM.

With `C=CCNC(=O)C(=O)C(CC1CC1)NC(=O)[C@@H]1CC2(CN1C(=O)[C@@H](NC(=O)N[C@@H](CN1C(=O)CC(C)(C)CC1=O)C(C)(C)C)C(C)(C)C)SCCS2` (stereo not given in full), in data set [1], the Ratio is 290. This compound registered a Ki in data set [3] of 21 nM.

As for `C=CCNC(=O)C(=O)C(CCC)NC(=O)[C@@H]1CC2(CN1C(=O)[C@@H](NC(=O)NC1(CS(=O)(=O)C(C)(C)C)CCCCC1)C(C)(C)C)SCCS2` (stereo not given in full), in data set [1], the Ratio was 50. In data set [2], the exposure (AUC) was 0.57 µM·h. Also, in data set [3], the Ki came out at 11 nM.

In data set [3], `CC(C)(C)NC(=O)N[C@H](C(=O)N1CC2(C[C@H]1C(=O)NC(CC1CCC1)C(=O)C(N)=O)SCCS2)C(C)(C)C` (stereo not given in full) displayed a Ki of 600 nM.

For `CC(C)(C)NC(=O)N[C@H](C(=O)N1C[C@H]2[C@@H]([C@H]1C(=O)NC(CC1CCC1)C(=O)C(N)=O)C2(C)C)C(C)(C)C` (stereo not given in full) [BOCEPREVIR], the 90% effect concentration (EC90) in data set [4] (Hepatitis C virus, Huh-7, 72 h, read-out: EC90) was 350 nM. The AUC in data set [2] is 0.14 µM·h. Further, the Ki in data set [3] worked out at 14 nM.

In turn, `CC(C)(C)NC(=O)N[C@H](C(=O)N1CC2(C[C@H]1C(=O)NC(CC1CC1)C(=O)C(N)=O)SCCS2)C1CCCCC1` (stereo not given in full) had an inhibitory constant (Ki) in data set [3] of 200 nM.
